Data taken from patent EP1101492A1, “NOVEL REMEDIES FOR ALLERGIC DISEASES” (FUJI YAKUHIN KOGYO KABUSHIKI KAISHA, priority 1998, dated 2000).

Assays:
allergic peritonitis = experiment: Allergic peritonitis induced with ovalbumin (peritoneal exudate cells); format: in vivo, Balb/c mice; settings: ovalbumin
Description: Twenty four hours after induction, mice were sacrificed under ether […] and each penitoneal cavity was lavaged twice or thrice with a washout medium (total volume: 5 mL, physiological saline containing 10 units/mL of heparin). Peritoneal exudate cells (PEC) were harvested in a siliconized glass tube. The retrieved washout medium was measured for its yield (mL) and the number of exudate cells therein by using Turk solution and counting on a haemocytometer and a total number of PEC was calculated. An aliquot thereof (an extent of approximately 20,000 cells of PEC) was taken. Specimens for staining were prepared using Cytospin 3 (CHANDON), and PEC was stained with Dif-Quick solution (International Reagents Corporation). After staining, PEC was subjected to fractional counts under a microscope with classification into eosinophils, neutrophils, lymphocytes/macrophages and basophils based on their form and stain nature (more than 500 PEC per specimen were randomly counted). […] After counting, intraperitoneal exudation inhibition rates were calculated by the following formula and expressed as the therapeutic efficacies: Inhibition Rate (%) =[1 -((PEC in Sensitized/Drug-Treated Mouse) - (PEC in Unsensitized/Saline-Treated Mouse))/((PEC in Sensitized/Saline-Treated Mouse) - (PEC in Unsensitized/Saline-Treated Mouse))]× 100 [formula]
A physiological saline solution containing ovalbumin (0.25 mg/mL) and an aluminum hydroxide gel (4 mg/mL) was administered subcutaneously to male Balb/c mice (7 weeks old, 20 to 23 g, purchased from JAPAN SLC, Inc.) twice at one week interval at a single dose of 0.4 mL for sensitization. On Day 14 after the initial sensitization, an antigen solution for induction (2.5 µg/mL) was administered intraperitoneally to each animal at a dose of 0.4 mL to raise allergic peritonitis. Compound No. 130 (30 mg/kg) or a negative control solvent, physiological saline (10 mL/kg), was administered intraperitoneally to each animal 5 minutes prior to induction, 3 and 6 hours post-induction.
Similarly to Example 24, the peritoneal cavities were lavaged to retrieve PEC. The drained liquids were measured for their yield and total PEC number therein. In the same manner as in Example 24, PEC was stained and subjected to fractional counting under a microscope based on their form. […] Similarly to Example 24, basophils and neutrophils were excluded from subjects to be examined. In the same manner as in Example 24, intraperitoneal exudation inhibition rates were calculated and expressed as the therapeutic efficacies.
In the same manner as in Example 25, male Balb/c mice were sensitized with ovalbumin and an aluminum hydroxide gel, and, on Day 14 after the initial sensitization, treated with an antigen solution to raise allergic peritonitis. Compound No. […]
Similarly to Example 24, the peritoneal cavities were lavaged to retrieve PEC 24 hours after induction. The drained liquids were measured for their yield and total PEC number therein.

[1] = system: mouse experimental atopic dermatitis models; experiment: Scratching behavior in experimental atopic dermatitis model; format: in vivo, mice; settings: for % Inhibition (scratching behavior) / Scratching Behavior (Times) (Average± Deviation): 0.1% solution in ethanol, 10 µL per side painted 1 hour pre-elicitation; for % Inhibition (scratching behavior): counts for 15 to 30 and 30 to 45 min post-elicitation, vs solvent control; for Scratching Behavior (Times) (Average± Deviation): counts for the 15 to 30 min and 30 to 45 min post-elicitation durations, 3 animals per group, solvent control 209.0 ± 70.4
[2] = system: mouse experimental atopic dermatitis models; experiment: Auricle edema in experimental atopic dermatitis model (anti-DNP IgE sensitization, DNFB elicitation); format: in vivo, Balb/c mice; settings: 60 µg/ear/dose in ethanol painted on auricles twice a day, 1 hour pre-elicitation, 6 hours, 1 to 6 days post-elicitation; for % Inhibition vLPR: 7 or 8 days post-elicitation; for % Inhibition IPR: 1 hour post-elicitation; for % Inhibition LPR: 1 day post-elicitation
Description: Intravenous injection of an anti-2,4-dinitrophenol (DNP) antibody (anti-DNP Ab, monoclonal IgE Ab; its antibody titer was 1 : 512 to 1 : 1024 by a rat heterologous passive cutaneous anaphylaxis reaction using a Wister rat) into a tail vein of female Balb/c mice (7-week old, body weight: 17 to 20 g, purchased from JAPAN SLC, Inc.) at a dose of […] per animal raised passive sensitization. Twenty four hours post-sensitization, 0.1% 2,4-dinitrofluorobenzene (DNFB; Nacalai Tesque, Inc.) in ethanol was painted onto both sides of a pair of mouse auricles at a dose of 10µL per each side for elicitation.
Fresh unsensitized mice were painted with 0.1% DNFB in ethanol onto their ear in the same manner as aforementioned and served as a control group. Not only immediately prior to elicitation but also 1 hour, 5 hours, daily between Days 1 and 14, and on Day 16 post-elicitation, ear thickness was measured using a dial thickness gauge (Peacock Co.). Each degree of auricle edemas was calculated: Auricular Edema (µm)=(Ear Thickness Post-Elicitation, µm) - (Ear Thickness immediately prior to Elicitation, µm) [formula]
Balb/c mice were passively sensitized with anti-DNP IgE Ab in the same manner as in Example 1. Twenty four hours later, 0.1% DNFB in ethanol was painted onto both sides of a pair of mouse auricles at a dose of 10 µL per each side for elicitation.
Immediately prior to elicitation, 1 hour and on Day 1 post-elicitation, auricle thickness was measured in the same manner as in Example 1. Each therapeutic efficacy is recorded as a percent inhibition wherein the "auricle edema (untreated group)" is used as a control. Auricle Edema Inhibition (%) = [ 1 -(Auricle Edema (Treated Group))/(Auricle Edema (Untreated Group))] × 100 (%) [formula]
Immediately prior to elicitation, and on Day 7 post-elicitation, auricle thickness was similarly measured. Each therapeutic efficacy is recorded as a percent inhibition wherein the auricle edema in the untreated group is used as a control.
Immediately prior to elicitation, and on Day 7 post-elicitation, auricle thickness was similarly measured. Each therapeutic efficacy is recorded as a percent inhibition wherein the auricle edema (untreated group) is used as a control.
Immediately prior to elicitation, at 1 and 4 hours and on Days 1, 3 and 7 post-elicitation, auricle thickness was similarly measured. From each auricle edema (µm) based on the auricle thickness immediately prior to elicitation, especially a prophylactically therapeutic efficacy of the test compound was evaluated.
Immediately prior to elicitation, at 0.5, 1 and 4 hours and on Days 1, 3 and 7 post-elicitation, auricle thickness was similarly measured. Each amount of auricle edemas was calculated (average± standard deviation).

[3] = system: guinea pig experimental bronchial asthma models; experiment: Experimental bronchial asthma model (ovalbumin inhalation): airway resistance and asthmatic death;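 note: female Std:Hartley guinea pigs sensitized by inhaling nebulized ovalbumin once daily for 8 consecutive days, 8 to 11 animals per group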; settings: test compounds 15 mg/kg s.c. (Compound No. 114: 30 mg/kg), prednisolone 10 mg/kg orally
Description: Guinea pigs (female, Std:Hartley, 3 weeks old, 200 to 250 g) were individually housed in a plastic chamber (width, 200 mm; depth, 300 mm; height, 167 mm). Aqueous ovalbumin (10 mg/mL) was administered to the guinea pigs once a day for sensitization by 10 min. inhalation with a nebulizer (5B, Nippon Shoji K.K.: flow rate, 6 L/min.) at a dose of 10 mg/mL during 8 cosecutive days. On Day 7 after the final sensitization, the guinea pigs were housed in a plastic chamber and inhaled using a nebulizer with a solution of ovalbumin (10 mg/mL) in physiological saline for 1 min. for elicitation (Matsumoto, T., et al., The Journal of Pharmacology and Experimental Therapeutics, 269: 1236-1244, 1994). The number of animals employed in the experiment was set to the extent there are at least 6 as individuals escaping asthmatic death. A solution of a test compound (Compound No. 130, 15 mg/kg) in water for injection was administered subcutaneously twice, i.e., 24 hours and 2 hours prior to elicitation. Similarly, the solvent alone was also administered to a negative control group. A suspension of prednisolone (10 mg/kg) in 0.5% aqueous methyl cellulose was administered orally twice, i.e., 24 hours and 2 hours prior to elicitation. Similarly, the solvent alone was also administered to another control group.
The evaluation for efficacies was conducted in terms of airway resistance. For this purpose, an apparatus dedicated to the measurement of airway resistance (K.K. Medical Agent) was employed. Measurement includes setting a guinea pig in a test chamber under a not-anesthetized condition, applying sinusoidal pressure waves of 30 Hz components to a part below the neck of the animal from the back side of the chamber, measuring respiratory waves of 30 Hz components leaking through the mouth (volume of 30 Hz air flow passing through the respiratory tract) in front of the neck, and calculating airway resistance mechanically. Measurement was carried out immediately prior to the first drug treatment (24 hours before elicitation), just prior to elicitation, 10 minutes, 1, 2, 4, 6, and 8 hours post-elicitation.
It was visually observed by a person carrying out said test in terms, of the appearance of cyanosis or suffocative death (asthmatic death) due to respiratory obstruction.
Guinea pigs were sensitized with ovalbumin and asthma was induced on Day 7 after final sensitization in the same manner as in Example 20. The number of animals employed in the experiment was set to the extent there are at least 6 as individuals escaping asthmatic death (8 to 11 animals/group). In the same manner as in Example 20, the animals were measured for airway resistance mechanically and each percent change (%) in airway resistance was calculated (each value just prior to elicitation was set as 100%). Each percent amelioration in airway resistance was calculated from the percent changes in airway resistance according to the following formula: Amelioration in Airway Resistance (%) = 1 -[((Percent Change in Airway Resistance after Drug-Administration) - (Value just prior to Challenge (100)))/((Percent Change in Airway Resistance after Solvent-Administration) - (Value just prior to Challenge (100)))]× 100 [formula]

[4] = 30 mg/kg s.c. 1 hour prior to induction and 3 hours post-induction, lavage 6 hours post-induction
[5] = 30 mg/kg s.c., lavage 24 hours post-induction
[6] = 24 and 2 hours prior to elicitation, vs solvent control

SMILES	Leukocyte exudate inhibition rate (%) Eosinophils (allergic peritonitis; [4])	Leukocyte exudate inhibition rate (%) Neutrophils (allergic peritonitis; [4])	Leukocyte exudate inhibition rate (%) Total PEC Number (allergic peritonitis; [4])	Leukocyte exudate inhibition rate (%) (Macrophages)/(Lymphocytes) (allergic peritonitis; [5])	Leukocyte exudate inhibition rate (%) Eosinophils (allergic peritonitis; [5])	Leukocyte exudate inhibition rate (%) Total PEC Number (allergic peritonitis; [5])	% Inhibition (scratching behavior) [1]	Scratching Behavior (Times) (Average± Deviation) [1]	% Inhibition vLPR [2]	% Inhibition IPR [2]	% Inhibition LPR [2]	inhibitory efficacy on scratching in the 20 to 40 min post-elicitation duration ([1]; 0.3% Compound No. 125 vs 0.1% tacrolimus painted on auricles)	efficacy on mouse scratching behavior (FIG. 9) ([1]; 0.3% ethanolic solution, 10 µL per side painted on auricles 5 minutes pre-elicitation, observed 2 hours)	% Survival ([3]; asthmatic death within several minutes after elicitation, water for injection 54.5, 0.5% methyl cellulose 66.7)	% Amelioration in Airway Resistance, 1 Hour after Elicitation [3, 6]	% Amelioration in Airway Resistance, 6 Hours after Elicitation [3, 6]	% Amelioration in Airway Resistance, Immediately after Elicitation [3, 6]
CNC(=O)[C@H](CCCCN)NC(=O)[C@H](CC(C)C)C(CCCc1ccc(C(=O)OC)cc1)C(=O)NO.Cl (single isomer, unassigned) [Compound No. 129, N-[4-(N-Hydroxyamino)-2(R)-isobutyl-3(R or S)-[3-(p-methoxycarbonylphenyl)propyl)succinyl]-L-lysine N-methylamide 1 hydrochloride]	39.9%	125.7%	109.1%	37.7%	30.2%	35.1%	31.1%	144.0 ± 48.8 Times	35%	28%	53%						
CNC(=O)[C@H](Cc1ccc(N=C(N)N)cc1)NC(=O)C(CC(C)C)[C@H](CCCc1ccccc1)C(=O)NO.Cl (single isomer, unassigned) [Compound No. 125, N -[4-(N-Hydroxyamino)-2(R or S)-isobutyl-3(S)-(3-phenyltrimethylene)succinyl]-L-4'-guanidophenylalanine-N-methylamide 1 hydrochloride]	38.4%	41.4%	40.9%	55.1%	38.9%	49.6%	40.7%	124.0 ± 43.6 Times	31%	56%	58%	higher than that of tacrolimus	apparently inhibits mouse scratching behavior				
CNC(=O)[C@H](Cc1ccc(N=C(N)N)cc1)NC(=O)[C@@H](CC(=O)NO)CC(C)C.O=S(=O)(O)O [Compound No. 122, N-[4-(N-Hydroxyamino)-2(R)-isobutylsuccinyl]-L-4'-guanidophenylalanine-N-methylamide 1 sulfate]		27.1%	38.6%				54.1%	96.0 ± 32.6 Times	35%	31%	22%						
CC(C)C[C@@H](C(=O)N[C@@H](Cc1ccc(CN)cc1)C(=O)O)C(CCCc1ccccc1)C(=O)NO.Cl (mixture of isomers) [Compound No. 114, N^a-[4-(N-Hydroxyamino)-2(R)-isobutyl-3(RS)-(3-phenylpropyl)succinyl]-L-4'-aminomethylphenylalanine · 1 hydrochloride]				29.0%	37.5%	33.4%	30.3%	345.7 ± 47.1 Times	52%	71%	62%			70.0%	39.4%	69.4%	54.0%
COC(=O)[C@H](Cc1ccc(CN)cc1)NC(=O)[C@H](CC(C)C)[C@H](CCCc1ccccc1)C(=O)NO.Cl [Compound No. 132, N-[4-(N-Hydroxyamino)-2(R)-isobutyl-3(S)-(3-phenylpropyl)succinyl]-L-4'-aminomethylphenylalanine methyl ester 1 hydrochloride]				34.0%	24.3%	31.6%	49.9%	104.7 ± 30.6 Times	46%	20%	39%						
